Experimental data from the supplement of paper PMC9663587.

Key:
Neratinib/HKI272 [1] = compound: T1, CCOc1cc2ncc(C#N)c(Nc3ccc(OCc4ccccn4)c(Cl)c3)c2cc1NC(=O)/C=C/CN(C)C [Neratinib/HKI272]; assay: GR value, 72 h; higher = faster growth (1 = untreated, <0 = killing);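 further: breast cancer and non-malignant breast epithelial lines, nine half-log doses, viable cells counted by Hoechst and LIVE/DEAD dye imaging versus time-zero plates and DMSO controls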
Flavopiridol [2] = compound: T2, CN1CC[C@H](c2c(O)cc(O)c3c(=O)cc(-c4ccccc4Cl)oc23)[C@H](O)C1 [Flavopiridol]; assay: as above
THZ531 = compound: CN(C)C/C=C/C(=O)Nc1ccc(C(=O)N2CCC[C@@H](Nc3ncc(Cl)c(-c4c[nH]c5ccccc45)n3)C2)cc1 [THZ531]; assay: increase in dead-cell fraction, 72 h; higher = more death;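 further: breast cancer cell lines in 384-well plates, stained with Hoechst plus LIVE/DEAD far red dye and imaged, cells above an LDR intensity threshold counted dead, Hoechst-negative corpses included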
BSJ-03-123 = compound: CC(=O)c1c(C)c2cnc(Nc3ccc(N4CCN(CCOCCOCCOCCNC(=O)COc5cccc6c5C(=O)N(C5CCC(=O)NC5=O)C6=O)CC4)cn3)nc2n(C2CCCC2)c1=O [BSJ-03-123]; assay: as above
[3] = compound: CC(=O)c1c(C)c2cnc(Nc3ccc(N4CCNCC4)cn3)nc2n(C2CCCC2)c1=O; assay: as above
[4] = compound: CCc1cnn2c(NCc3ccc[n+]([O-])c3)cc(N3CCCC[C@H]3CCO)nc12; assay: as above
Neratinib/HKI272 [5] = compound: T1, Neratinib/HKI272; assay: as above
YKL-5-124 = compound: C=CC(=O)Nc1ccc(C(=O)Nc2[nH]nc3c2CN(C(=O)N[C@H](CN(C)C)c2ccccc2)C3(C)C)cc1 [YKL-5-124]; assay: as above
THZ1 = compound: CN(C)C/C=C/C(=O)Nc1ccc(C(=O)Nc2cccc(Nc3ncc(Cl)c(-c4c[nH]c5ccccc45)n3)c2)cc1 [THZ1]; assay: as above
LEE011/Ribociclib = compound: CN(C)C(=O)c1cc2cnc(Nc3ccc(N4CCNCC4)cn3)nc2n1C1CCCC1 [LEE011/Ribociclib]; assay: as above
Flavopiridol [6] = compound: T2, Flavopiridol; assay: as above
[7] = compound: CCN1CCN(Cc2ccc(Nc3ncc(F)c(-c4cc(F)c5nc(C)n(C(C)C)c5c4)n3)nc2)CC1; assay: as above

MDAMB231
GR value (Neratinib/HKI272 [1]; 0.0003162 µM): 1.03 GR
GR value (Neratinib/HKI272 [1]; 0.001 µM): 0.999 GR
GR value (Neratinib/HKI272 [1]; 0.003162 µM): 0.978 GR
GR value (Neratinib/HKI272 [1]; 0.01 µM): 1.05 GR
GR value (Neratinib/HKI272 [1]; 0.03162 µM): 1.03 GR
GR value (Neratinib/HKI272 [1]; 0.1 µM): 1.01 GR
GR value (Neratinib/HKI272 [1]; 0.3162 µM): 0.917 GR
GR value (Neratinib/HKI272 [1]; 1 µM): 0.688 GR
GR value (Neratinib/HKI272 [1]; 3.162 µM): -0.0968 GR
GR value (Flavopiridol [2]; 0.0001 µM): 1.02 GR
GR value (Flavopiridol [2]; 0.0003162 µM): 1.03 GR
GR value (Flavopiridol [2]; 0.001 µM): 1 GR
GR value (Flavopiridol [2]; 0.003162 µM): 0.886 GR
GR value (Flavopiridol [2]; 0.01 µM): 0.858 GR
GR value (Flavopiridol [2]; 0.03162 µM): 0.866 GR
GR value (Flavopiridol [2]; 0.1 µM): 0.656 GR
GR value (Flavopiridol [2]; 0.3162 µM): 0.152 GR
GR value (Flavopiridol [2]; 1 µM): -0.434 GR
increase in dead-cell fraction (THZ531; 0.0001 µM): -0.0027
increase in dead-cell fraction (THZ531; 0.0003162 µM): -0.0002
increase in dead-cell fraction (THZ531; 0.001 µM): 0.002
increase in dead-cell fraction (THZ531; 0.003162 µM): -0.0005
increase in dead-cell fraction (THZ531; 0.01 µM): -0.0004
increase in dead-cell fraction (THZ531; 0.03162 µM): 0.0008
increase in dead-cell fraction (THZ531; 0.1 µM): 0.0103
increase in dead-cell fraction (THZ531; 0.3162 µM): 0.0403
increase in dead-cell fraction (THZ531; 1 µM): 0.224
increase in dead-cell fraction (BSJ-03-123; 0.001 µM): -0.0008
increase in dead-cell fraction (BSJ-03-123; 0.003162 µM): -0.0016
increase in dead-cell fraction (BSJ-03-123; 0.01 µM): 0.0034
increase in dead-cell fraction (BSJ-03-123; 0.03162 µM): 0.0017
increase in dead-cell fraction (BSJ-03-123; 0.1 µM): 0.0035
increase in dead-cell fraction (BSJ-03-123; 0.3162 µM): 0.0024
increase in dead-cell fraction (BSJ-03-123; 1 µM): 0.0009
increase in dead-cell fraction (BSJ-03-123; 3.162 µM): 0.0031
increase in dead-cell fraction (BSJ-03-123; 10 µM): 0.157
increase in dead-cell fraction ([3]; 0.0003162 µM): -0.0007
increase in dead-cell fraction ([3]; 0.001 µM): 0.0057
increase in dead-cell fraction ([3]; 0.003162 µM): -0.0035
increase in dead-cell fraction ([3]; 0.01 µM): -0.0069
increase in dead-cell fraction ([3]; 0.03162 µM): -0.0054
increase in dead-cell fraction ([3]; 0.1 µM): 0.0066
increase in dead-cell fraction ([3]; 0.3162 µM): 0.0151
increase in dead-cell fraction ([3]; 1 µM): 0.0334
increase in dead-cell fraction ([3]; 3.162 µM): 0.0399
increase in dead-cell fraction ([4]; 0.0001 µM): 0.0051
increase in dead-cell fraction ([4]; 0.0003162 µM): -0.0006
increase in dead-cell fraction ([4]; 0.001 µM): 0.0055
increase in dead-cell fraction ([4]; 0.003162 µM): -0.0028
increase in dead-cell fraction ([4]; 0.01 µM): 0.0529
increase in dead-cell fraction ([4]; 0.03162 µM): 0.459
increase in dead-cell fraction ([4]; 0.1 µM): 0.573
increase in dead-cell fraction ([4]; 0.3162 µM): 0.582
increase in dead-cell fraction ([4]; 1 µM): 0.618
increase in dead-cell fraction (Neratinib/HKI272 [5]; 0.0003162 µM): 0.0013
increase in dead-cell fraction (Neratinib/HKI272 [5]; 0.001 µM): -0.0029
increase in dead-cell fraction (Neratinib/HKI272 [5]; 0.003162 µM): 0.0044
increase in dead-cell fraction (Neratinib/HKI272 [5]; 0.01 µM): 0.0008
increase in dead-cell fraction (Neratinib/HKI272 [5]; 0.03162 µM): 0.0108
increase in dead-cell fraction (Neratinib/HKI272 [5]; 0.1 µM): 0.0067
increase in dead-cell fraction (Neratinib/HKI272 [5]; 0.3162 µM): 0.0175
increase in dead-cell fraction (Neratinib/HKI272 [5]; 1 µM): 0.0509
increase in dead-cell fraction (Neratinib/HKI272 [5]; 3.162 µM): 0.378
increase in dead-cell fraction (YKL-5-124; 0.001 µM): 0.0171
increase in dead-cell fraction (YKL-5-124; 0.003162 µM): 0.0093
increase in dead-cell fraction (YKL-5-124; 0.01 µM): 0.016
increase in dead-cell fraction (YKL-5-124; 0.03162 µM): 0.0176
increase in dead-cell fraction (YKL-5-124; 0.1 µM): 0.0238
increase in dead-cell fraction (YKL-5-124; 0.3162 µM): 0.0218
increase in dead-cell fraction (YKL-5-124; 1 µM): 0.0259
increase in dead-cell fraction (YKL-5-124; 3.162 µM): 0.0247
increase in dead-cell fraction (YKL-5-124; 10 µM): 0.155
increase in dead-cell fraction (THZ1; 0.0001 µM): -0.0006
increase in dead-cell fraction (THZ1; 0.0003162 µM): 0.0015
increase in dead-cell fraction (THZ1; 0.001 µM): 0.0027
increase in dead-cell fraction (THZ1; 0.003162 µM): 0.0007
increase in dead-cell fraction (THZ1; 0.01 µM): -0.0012
increase in dead-cell fraction (THZ1; 0.03162 µM): 0.0033
increase in dead-cell fraction (THZ1; 0.1 µM): 0.0231
increase in dead-cell fraction (THZ1; 0.3162 µM): 0.0712
increase in dead-cell fraction (THZ1; 1 µM): 0.363
increase in dead-cell fraction (LEE011/Ribociclib; 0.001 µM): -0.0007
increase in dead-cell fraction (LEE011/Ribociclib; 0.003162 µM): -0.0028
increase in dead-cell fraction (LEE011/Ribociclib; 0.01 µM): 0.0009
increase in dead-cell fraction (LEE011/Ribociclib; 0.03162 µM): -0.0021
increase in dead-cell fraction (LEE011/Ribociclib; 0.1 µM): 0.0045
increase in dead-cell fraction (LEE011/Ribociclib; 0.3162 µM): 0.005
increase in dead-cell fraction (LEE011/Ribociclib; 1 µM): 0.0045
increase in dead-cell fraction (LEE011/Ribociclib; 3.162 µM): 0.0025
increase in dead-cell fraction (LEE011/Ribociclib; 10 µM): 0.014
increase in dead-cell fraction (Flavopiridol [6]; 0.0001 µM): -0.0026
increase in dead-cell fraction (Flavopiridol [6]; 0.0003162 µM): -0.0012
increase in dead-cell fraction (Flavopiridol [6]; 0.001 µM): 0.002
increase in dead-cell fraction (Flavopiridol [6]; 0.003162 µM): 0.0006
increase in dead-cell fraction (Flavopiridol [6]; 0.01 µM): -0.0004
increase in dead-cell fraction (Flavopiridol [6]; 0.03162 µM): -0.0008
increase in dead-cell fraction (Flavopiridol [6]; 0.1 µM): 0.0005
increase in dead-cell fraction (Flavopiridol [6]; 0.3162 µM): 0.0405
increase in dead-cell fraction (Flavopiridol [6]; 1 µM): 0.485
increase in dead-cell fraction ([7]; 0.001 µM): 0.0075
increase in dead-cell fraction ([7]; 0.003162 µM): 0.0028
increase in dead-cell fraction ([7]; 0.01 µM): 0.0023
increase in dead-cell fraction ([7]; 0.03162 µM): 0.0037
increase in dead-cell fraction ([7]; 0.1 µM): 0.0398
increase in dead-cell fraction ([7]; 0.3162 µM): 0.0474
increase in dead-cell fraction ([7]; 1 µM): 0.12
increase in dead-cell fraction ([7]; 3.162 µM): 0.366
increase in dead-cell fraction ([7]; 10 µM): 0.68
